Source: article PMC12608155, “Discovery of Potential Antileishmanial Compounds Through Phenotypic Screening of an Alkaloid Library” (Molecules, 2025)
Read-outs that look alike come from different tables or passages of the source.

Key:
[1] = system: L. donovani IRFP axenic amastigotes; experiment: Primary single-concentration screening on axenic amastigotes, growth inhibition at 72 h; assay type: cell-based, Leishmania donovani; details: axenic amastigotes; for inhibition at 1 µM / inhibition at 10 µM: Leishmania donovani; for inhibition at 1 µM / Growth Inhibition (%) at 72h, 1 µM_Exp1 / Growth Inhibition (%) at 72h, 1 µM_Exp2: 1 µM; for inhibition at 10 µM / Growth Inhibition (%) at 72h, 10 µM_Exp1 / Growth Inhibition (%) at 72h, 10 µM_Exp2: 10 µM
[2] = Cytotoxicity in RAW 264.7 cells (alamarBlue, 72 h); details: mouse, RAW 264.7 macrophage cells
Protocol: (§1) To this end, we calculated SIs from 16 preselected results from the ex vivo system. With this aim, dose–response curves were performed in duplicate across at least three independent experiments using RAW 264.7 mouse macrophages (as a model of host cells harboring amastigotes) and HepG2 (as a model for assessing systemic toxicity).
(§2) To evaluate the safety of the selected compounds, two cell lines were employed: RAW 264.7 (a mouse macrophage-derived cell line) and HepG2 (a human hepatoma cell line). Furthermore, to determine the intestinal tolerance relevant to potential oral administration, mouse intestinal organoids were prepared.
(§3) RAW 264.7 and HepG2 were routinely cultured under standard conditions. RAW 264.7 cells were maintained in RPMI medium (Gibco) supplemented with, 25 mM HEPES, 24 mM NaHCO3, 2 mM L-glutamine, mixture of antibiotics and 10% FBS. HepG2 cells were cultured in DMEM/F-12 (Gibco) and supplemented 10% of FBS. For cytotoxicity assays, 10,000 cells per well were seeded into 96-well plates and incubated overnight at 37 °C with 5% of CO2. Subsequently, 2-fold serial dilutions of the compounds were added and incubated for 72 h. Cell viability using the alamarBlue™ assay according to the manufacturer’s instructions, and fluorescence was measured with a Varioskan™ LUX microplate reader (ThermoFisher Scientific, Waltham, MA, USA). Non-linear regression analyses were performed using SigmaPlot^TM software (version 10.0) to calculate CC50. Data were obtained from at least three independent experiments performed in duplicate.

[3] = system: L. donovani IRFP intramacrophagic amastigotes; experiment: Dose-response assay on ex vivo infected splenic explants (intramacrophagic amastigotes); assay type: cell-based, Leishmania donovani; details: Leishmania donovani, Splenocyte; primary cultures of infected mouse splenocytes; read-out: EC50 Intramacrophagic Amastigotes
[4] = Cytotoxicity in HepG2 cells (alamarBlue, 72 h); details: human, HepG2 hepatoma cells
Protocol: as §1, §2, §3

[5] = system: L. donovani IRFP axenic amastigotes; experiment: Dose-response assay on axenic amastigotes; assay type: cell-based, Leishmania donovani; details: Leishmania donovani
Protocol: The objective of the present study was to identify new antileishmanial drug candidates by screening a commercial library of plant-derived alkaloids using a platform based on axenic amastigotes of L. donovani IRFP—the causative agent of VL—genetically modified to emit infrared fluorescence during their viable stage (hereafter referred to as L. donovani IRFP). To this end, single-dose assays at 10 μM and 1 μM, as well as dose–response assays, were performed. Compounds showing significant activity in the initial screening were subsequently clustered according to chemical structure using the DataWarrior tool, and representative compounds were further evaluated in dose response assays against axenic amastigotes.
Female Balb/c mice aged from 6 to 8 weeks were intraperitoneally inoculated with 1.5 × 10^9 infective L. donovani IRFP metacyclic promastigotes. Between 8 and 12 weeks after infection, mice were humanely euthanised and bone marrow was collected from the femurs and tibias of both hind limbs. The bones were cut at both ends, and prewarmed PBS was flushed through the medullary cavity using a syringe fitted with a 27G needle, to extract the bone marrow cells. The resulting cell suspension was filtered through a 100 µm cell strainer and centrifuged at 2500 rpm for 10 min at room temperature. To obtain free amastigotes, the pelleted cells were resuspended within a 75 mL ventilated flask in amastigote culture medium (15 mM KCl; 136 mM KH2PO4; 10 mM K2HPO4.3H2O; 0.5 mM MgSO4.7 H2O; 24 mM NaHCO3; 22 mM glucose; 1 mM glutamine, 1x RPMI 1640 vitamin mix (Sigma-Aldrich, Merck, Darmstadt, Germany), 10 mM folic acid, […], 1x RPMI amino acid mix (Sigma-Aldrich, Merck, Darmstadt, Germany), […], antibiotic mixture, 25 mM MES, 10% FBS (Gibco, ThermoFisher Scientific, Waltham, MA, USA) and incubated at 37 °C in a humidified atmosphere containing 5% CO2 [46].
The efficacy of the selected compounds was assessed by measuring near-infrared fluorescence (700 nm) using an Odyssey Infrared Imaging System (Li-Cor, Lincoln, NE, USA) following the previously described protocols.

[6] = experiment 1, 72 h, read-out: Growth Inhibition (%) at 72h, 1 µM_Exp1
[7] = experiment 2, 72 h, read-out: Growth Inhibition (%) at 72h, 1 µM_Exp2
[8] = experiment 1, 72 h, read-out: Growth Inhibition (%) at 72h, 10 µM_Exp1
[9] = experiment 2, 72 h, read-out: Growth Inhibition (%) at 72h, 10 µM_Exp2

Compound	inhibition at 1 µM [1, 6] [%]	inhibition at 1 µM [1, 7] [%]	inhibition at 10 µM [1, 8] [%]	inhibition at 10 µM [1, 9] [%]	CC50 at 72 h [2] [µM]	EC50 [3] [µM]	CC50 at 72 h [4] [µM]	IC50 [5] [µM]	Growth Inhibition (%) at 72h, 1 µM_Exp1 ([1]; experiment 1, 72 h) [%]	Growth Inhibition (%) at 72h, 1 µM_Exp2 ([1]; experiment 2, 72 h) [%]	Growth Inhibition (%) at 72h, 10 µM_Exp1 ([1]; experiment 1, 72 h) [%]	Growth Inhibition (%) at 72h, 10 µM_Exp2 ([1]; experiment 2, 72 h) [%]
O=C(C[C@H]1NCCC[C@@H]1O)Cn1cnc2ccccc2c1=O [Febrifugine]	15.4	-25.3	99.8	98.2	–	–	–	–	–	–	–	–
CC[C@]12C=CCN3CC[C@]4(C(=C(C(=O)OC)C1)Nc1ccccc14)[C@@H]32 [Tabersonine]	-26.2	-7.79	98	61.5	–	–	–	–	–	–	–	–
CN1C(=O)/C(=C2/C(=O)Nc3ccccc32)c2ccccc21 [Meisoindigo]	100	100	100	100	14.9 ± 0.9	9.3 ± 0.52	20.4 ± 1.4	1.53 ± 0.21	–	–	–	–
COc1cc2c3c(cc4ccccc4c3c1OC)N(C)CC2 [Dehydronuciferine]	86.7	77.8	100	100	18.6 ± 1.11	> 50	25.5 ± 5.43	1.23 ± 0.03	–	–	–	–
COc1cc2c(cc1OC)-c1c(C)c3ccc(OC)c(OC)c3c[n+]1CC2.[OH-] [Dehydrocorydaline (hydroxyl)]	–	–	–	–	–	–	–	–	10.19	-0.13	92.43	77.86
COC(=O)C[C@](O)(CCC(C)(C)O)C(=O)O[C@@H]1C(OC)=C[C@]23CCCN2CCc2cc4c(cc2[C@H]13)OCO4 [Harringtonine]	-25.3	3.29	92.5	92.2	–	–	–	–	–	–	–	–
[Cl-].c1c2c(cc3c1OCO3)-c1cc3ccc4c(c3c[n+]1CC2)OCO4 [Coptisine (chloride)]	–	–	–	–	–	–	–	–	29.53	16.08	84.96	96.73
COc1cc2c(cc1O)C1Cc3ccc(OC)c(O)c3C[N+]1(C)CC2.[Cl-] (stereo not shown) [Cyclanoline (chloride)]	–	–	–	–	–	–	–	–	-48.98	13.86	77.56	17.25
CC[C@]1(O)C[C@@H]2CN(CCc3c([nH]c4ccccc34)[C@@](C(=O)OC)(c3cc4c(cc3OC)N(C)[C@H]3[C@@](O)(C(=O)OC)[C@H](OC(C)=O)[C@]5(CC)C=CCN6CC[C@]43[C@@H]65)C2)C1.O=S(=O)(O)O [Vinblastine (sulfate)]	–	–	–	–	–	–	–	–	-20.42	-25.23	99.34	78.77
Evocarpine	–	–	–	–	–	–	–	–	-18.62	-35.10	100.35	98.71
CC[C@@]1(O)C(=O)OCc2c1cc1n(c2=O)Cc2cc3c([N+](=O)[O-])cccc3nc2-1 [Rubitecan]	69.8	36.9	94.4	89.4	–	–	–	–	–	–	–	–
